Assay results taken from patent US5292733A, “Cephalosporin compounds” (Lucky Limited, priority 1991, dated 1994).
In brackets after ≈: the same amount, converted by molar mass.

Experiments:
Assay in all cases: Antibacterial activity MIC, two-fold agar dilution
Format in all cases: cell-based
[1] = test system: Salmonella typhimurium ATCC 14028; settings: Salmonella enterica; Salmonella typhimurium ATCC 14028; Muller-Hinton agar, 37° C., 20 hours; read-out: Antibacterial Activity MIC
Summary of the method: (§1)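 The minimum inhibitory concentration was measured on Muller-Hinton agar plates holding halving compound concentrations. Plates received a 2 μl spot of strain suspension at 10^7 CFU per ml and were incubated for 20 hours at 37° C.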

[2] = test system: Enterobacter cloacae ATCC 27508; settings: ATCC27508; Enterobacter cloacae ATCC 27508; Muller-Hinton agar, 37° C., 20 hours; read-out: Antibacterial Activity MIC
Summary of the method: as §1

[3] = test system: Bacillus megaterium ATCC 9885; settings: Priestia megaterium, ATCC9885; Bacillus megaterium ATCC 9885; Muller-Hinton agar, 37° C., 20 hours; read-out: Antibacterial Activity MIC
Summary of the method: as §1

[4] = test system: Morganella morganii ATCC 8076h; settings: ATCC8076H, Muller-Hinton agar, 37° C., 20 hours
Summary of the method: as §1

[5] = test system: Proteus mirabilis ATCC 25933; settings: ATCC25933; Proteus mirabilis ATCC 25933; Muller-Hinton agar, 37° C., 20 hours; read-out: Antibacterial Activity MIC
Summary of the method: as §1

[6] = test system: Escherichia coli ATCC 25922; settings: ATCC25922, Muller-Hinton agar, 37° C., 20 hours
Summary of the method: as §1

[7] = test system: Serratia marcescens ATCC 27117; settings: ATCC27117; Serratia marcescens ATCC 27117; Muller-Hinton agar, 37° C., 20 hours; read-out: Antibacterial Activity MIC
Summary of the method: as §1

[8] = test system: Pseudomonas aeruginosa ATCC 27853; settings: ATCC27853; Pseudomonas aeruginosa ATCC 27853; Muller-Hinton agar, 37° C., 20 hours; read-out: Antibacterial Activity MIC
Summary of the method: as §1

[9] = test system: Staphylococcus aureus ATCC 10537; settings: ATCC10537; Staphylococcus aureus ATCC 10537; Muller-Hinton agar, 37° C., 20 hours; read-out: Antibacterial Activity MIC
Summary of the method: as §1

[10] = test system: Citrobacter freundii ATCC 8090; settings: ATCC8090; Citrobacter freundii ATCC 8090; Muller-Hinton agar, 37° C., 20 hours; read-out: Antibacterial Activity MIC
Summary of the method: as §1

[11] = test system: Proteus vulgaris ATCC 6059; settings: ATCC6059; Proteus vulgaris ATCC 6059; Muller-Hinton agar, 37° C., 20 hours; read-out: Antibacterial Activity MIC
Summary of the method: as §1

[12] = test system: Shigella flexneri ATCC 11836; settings: ATCC11836, Muller-Hinton agar, 37° C., 20 hours
Summary of the method: as §1

[13] = test system: Acinetobacter calcoaceticus ATCC 15473; settings: ATCC15473; Acinetobacter calcoaceticus ATCC 15473; Muller-Hinton agar, 37° C., 20 hours; read-out: Antibacterial Activity MIC
Summary of the method: as §1

[14] = test system: Micrococcus luteus ATCC 9341; settings: ATCC9341; Micrococcus luteus ATCC 9341; Muller-Hinton agar, 37° C., 20 hours; read-out: Antibacterial Activity MIC
Summary of the method: as §1

[15] = test system: Streptococcus faecalis ATCC 29212; settings: Enterococcus faecalis, ATCC29212; Streptococcus faecalis ATCC 29212; Muller-Hinton agar, 37° C., 20 hours; read-out: Antibacterial Activity MIC
Summary of the method: as §1

[16] = test system: Bacillus cereus ATCC 11778; settings: ATCC11778; Bacillus cereus ATCC 11778; Muller-Hinton agar, 37° C., 20 hours; read-out: Antibacterial Activity MIC
Summary of the method: as §1

[17] = test system: Staphylococcus aureus ATCC 6538p; settings: ATCC6538P; Staphylococcus aureus ATCC 6538p; Muller-Hinton agar, 37° C., 20 hours; read-out: Antibacterial Activity MIC
Summary of the method: as §1

[18] = test system: Klebsiella pneumoniae ATCC 10031; settings: ATCC10031; Klebsiella pneumoniae ATCC 10031; Muller-Hinton agar, 37° C., 20 hours; read-out: Antibacterial Activity MIC
Summary of the method: as §1

[19] = test system: Escherichia coli ATCC 10536; settings: ATCC10536, Muller-Hinton agar, 37° C., 20 hours
Summary of the method: as §1

[20] = test system: Pseudomonas aeruginosa ATCC 25619; settings: ATCC25619; Pseudomonas aeruginosa ATCC 25619; Muller-Hinton agar, 37° C., 20 hours; read-out: Antibacterial Activity MIC
Summary of the method: as §1

[21] = test system: Providencia rettgeri ATCC 9250; settings: ATCC9250, Muller-Hinton agar, 37° C., 20 hours
Summary of the method: as §1

[22] = test system: Pseudomonas aeruginosa ATCC 10145; settings: ATCC10145; Pseudomonas aeruginosa ATCC 10145; Muller-Hinton agar, 37° C., 20 hours; read-out: Antibacterial Activity MIC
Summary of the method: as §1

[23] = test system: Enterobacter aerogenes ATCC 29751; settings: Klebsiella aerogenes, ATCC29751; Enterobacter aerogenes ATCC 29751; Muller-Hinton agar, 37° C., 20 hours; read-out: Antibacterial Activity MIC
Summary of the method: as §1

[24] = test system: Shigella sonnei ATCC 11060; settings: ATCC11060, Muller-Hinton agar, 37° C., 20 hours
Summary of the method: as §1

[25] = test system: Staphylococcus epidermidis ATCC 12228; settings: ATCC12228; Staphylococcus epidermidis ATCC 12228; Muller-Hinton agar, 37° C., 20 hours; read-out: Antibacterial Activity MIC
Summary of the method: as §1

Row | SMILES | MIC [1] | MIC [2] | MIC [3] | MIC [4] | MIC [5] | MIC [6] | MIC [7] | MIC [8] | MIC [9] | MIC [10] | MIC [11] | MIC [12] | MIC [13] | MIC [14] | MIC [15] | MIC [16] | MIC [17] | MIC [18] | MIC [19] | MIC [20] | further results
1 | CC[n+]1c(N)cc(SCC2=C(C(=O)[O-])N3C(=O)[C@@H](NC(=O)/C(=N\OCC(=O)O)c4csc(N)n4)[C@H]3SC2)nc1N [Compound I-18, (6R,7R)-7-[(Z)-2-(2-aminothiazol-4-yl)-2-(carboxymethoxyimino)acetamido]-3-(2,6-diamino-1-ethyl-pryrimidinium-4-yl)thiomethyl-3-cephem-4-carboxylate] | 0.25 µg/mL (≈ 0.41 µM) | 0.016 µg/mL (≈ 0.0262 µM) | 0.5 µg/mL (≈ 0.82 µM) | ≤ 0.008 µg/mL | 0.063 µg/mL (≈ 0.103 µM) | 0.063 µg/mL (≈ 0.103 µM) | 0.063 µg/mL (≈ 0.103 µM) | 2 µg/mL (≈ 3.28 µM) | 4 µg/mL (≈ 6.56 µM) | 0.063 µg/mL (≈ 0.103 µM) | 0.063 µg/mL (≈ 0.103 µM) | 0.016 µg/mL (≈ 0.0262 µM) | 16 µg/mL (≈ 26.2 µM) | 0.5 µg/mL (≈ 0.82 µM) | > 128 µg/mL | > 128 µg/mL | 4 µg/mL (≈ 6.56 µM) | 0.031 µg/mL (≈ 0.0508 µM) | 0.063 µg/mL (≈ 0.103 µM) | 1 µg/mL (≈ 1.64 µM) | MIC [21]: ≤ 0.008 µg/mL; MIC [22]: 4 µg/mL (≈ 6.56 µM); MIC [23]: 2 µg/mL (≈ 3.28 µM); MIC [24]: 0.063 µg/mL (≈ 0.103 µM); MIC [25]: 2 µg/mL (≈ 3.28 µM)
2 | CC(O/N=C(\C(=O)N[C@@H]1C(=O)N2C(C(=O)[O-])=C(CSc3cc(N)[n+](C)c(N)n3)CS[C@H]12)c1csc(N)n1)C(=O)O (stereo partly drawn) [Compound I-19, (6R,7R)-7-[(Z)-2-(2-aminothiazol-4-yl)-2-(R,S-carboxyeth-1-oxyimino)acetamido]-3-(2,6-diamino-1-methylpyrimidinium-4-yl)thiomethyl-3-cephem-4-carboxylate] | 0.25 µg/mL (≈ 0.41 µM) | 0.031 µg/mL (≈ 0.0508 µM) | 0.25 µg/mL (≈ 0.41 µM) | ≤ 0.008 µg/mL | 0.13 µg/mL (≈ 0.213 µM) | 0.13 µg/mL (≈ 0.213 µM) | 0.25 µg/mL (≈ 0.41 µM) | 2 µg/mL (≈ 3.28 µM) | 4 µg/mL (≈ 6.56 µM) | 0.13 µg/mL (≈ 0.213 µM) | 0.25 µg/mL (≈ 0.41 µM) | 0.016 µg/mL (≈ 0.0262 µM) | 8 µg/mL (≈ 13.1 µM) | 0.5 µg/mL (≈ 0.82 µM) | 128 µg/mL (≈ 210 µM) | 128 µg/mL (≈ 210 µM) | 4 µg/mL (≈ 6.56 µM) | 0.063 µg/mL (≈ 0.103 µM) | 0.13 µg/mL (≈ 0.213 µM) | 1 µg/mL (≈ 1.64 µM) | MIC [21]: ≤ 0.008 µg/mL; MIC [22]: 4 µg/mL (≈ 6.56 µM); MIC [23]: 1 µg/mL (≈ 1.64 µM); MIC [24]: 0.25 µg/mL (≈ 0.41 µM); MIC [25]: 4 µg/mL (≈ 6.56 µM)
3 | CC[n+]1c(N)cc(SCC2=C(C(=O)[O-])N3C(=O)[C@@H](NC(=O)/C(=N\OC(C)C(=O)O)c4csc(N)n4)[C@H]3SC2)nc1N (stereo partly drawn) [Compound I-20, (6R,7R)-7-[(Z)-2-(2-aminothiazol-4-yl)-2-(R,S-carboxyeth-1-oxyimino)acetamido]-3-(2,6-diamino-1-ethylprimidinium-4-yl)thiomethyl-3cephem-4-carboxylate] | 0.5 µg/mL (≈ 0.802 µM) | 0.016 µg/mL (≈ 0.0257 µM) | 0.25 µg/mL (≈ 0.401 µM) | ≤ 0.008 µg/mL | 0.063 µg/mL (≈ 0.101 µM) | 0.13 µg/mL (≈ 0.208 µM) | 0.25 µg/mL (≈ 0.401 µM) | 2 µg/mL (≈ 3.21 µM) | 4 µg/mL (≈ 6.41 µM) | 0.13 µg/mL (≈ 0.208 µM) | 0.25 µg/mL (≈ 0.401 µM) | 0.016 µg/mL (≈ 0.0257 µM) | 8 µg/mL (≈ 12.8 µM) | 0.25 µg/mL (≈ 0.401 µM) | 128 µg/mL (≈ 205 µM) | 128 µg/mL (≈ 205 µM) | 2 µg/mL (≈ 3.21 µM) | 0.063 µg/mL (≈ 0.101 µM) | 0.13 µg/mL (≈ 0.208 µM) | 1 µg/mL (≈ 1.6 µM) | MIC [21]: ≤ 0.008 µg/mL; MIC [22]: 4 µg/mL (≈ 6.41 µM); MIC [23]: 1 µg/mL (≈ 1.6 µM); MIC [24]: 0.5 µg/mL (≈ 0.802 µM); MIC [25]: 4 µg/mL (≈ 6.41 µM)
